According to ChEMBL document CHEMBL4840343, “Fragment-based lead discovery of indazole-based compounds as AXL kinase inhibitors” (Bioorg Med Chem, 2021):
Converted amounts (≈) assume the structure as drawn. Each block holds one compound with its values, some of them ahead of it. The source made the active and inactive calls. The rule behind the calls is not given here.

What was measured:
[1] = target: T1, Tyrosine-protein kinase receptor UFO (Homo sapiens, UniProt P30530); assay: Inhibition of Axl (unknown origin) using 5'FAM labeled KKKKEEIYFFF-NH2 peptide as substrate incubated for 1.5 hrs
T1 sequence (P30530 whole entry): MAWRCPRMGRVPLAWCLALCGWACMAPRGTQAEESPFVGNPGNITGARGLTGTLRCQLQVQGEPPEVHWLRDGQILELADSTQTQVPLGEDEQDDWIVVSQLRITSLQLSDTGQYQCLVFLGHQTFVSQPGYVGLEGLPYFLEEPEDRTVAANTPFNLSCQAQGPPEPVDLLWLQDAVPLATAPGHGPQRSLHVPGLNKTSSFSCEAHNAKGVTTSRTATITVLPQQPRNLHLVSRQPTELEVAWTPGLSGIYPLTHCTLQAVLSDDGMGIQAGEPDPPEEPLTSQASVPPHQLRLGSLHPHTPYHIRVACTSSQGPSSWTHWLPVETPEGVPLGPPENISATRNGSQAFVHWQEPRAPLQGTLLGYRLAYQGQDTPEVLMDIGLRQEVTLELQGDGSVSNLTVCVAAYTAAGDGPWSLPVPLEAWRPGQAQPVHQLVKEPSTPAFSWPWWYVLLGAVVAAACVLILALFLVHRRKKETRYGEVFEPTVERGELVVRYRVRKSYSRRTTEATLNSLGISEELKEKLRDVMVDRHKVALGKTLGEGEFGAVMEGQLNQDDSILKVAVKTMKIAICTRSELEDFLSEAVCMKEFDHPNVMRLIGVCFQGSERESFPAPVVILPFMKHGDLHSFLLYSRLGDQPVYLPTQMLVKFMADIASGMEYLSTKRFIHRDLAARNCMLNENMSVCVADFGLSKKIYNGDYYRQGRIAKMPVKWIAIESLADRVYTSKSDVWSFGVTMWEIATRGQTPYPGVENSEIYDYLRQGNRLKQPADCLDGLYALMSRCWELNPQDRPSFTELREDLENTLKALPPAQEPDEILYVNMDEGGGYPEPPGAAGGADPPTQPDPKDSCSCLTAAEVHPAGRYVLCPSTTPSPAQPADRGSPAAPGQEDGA

[2] = Permeability across apical to basolateral side in human Caco-2 cells; format: ADME, cell-based; details: read-out: permeability
[3] = Cmax in mouse at 5 mg/kg, po; format: ADME, organism-based; parameters: route oral, dose 5 mg/kg; details: in vivo
[4] = Half life in mouse at 5 mg/kg, po; format: ADME, organism-based; details: in vivo
[5] = Intrinsic clearance in human liver microsomes; format: ADME, Microsome; details: read-out: CLH
[6] = Thermodynamic solubility of compound at pH 7.4; format: physicochemical; details: buffer, read-out: Therm_solubility
[7] = Tmax in mouse at 5 mg/kg, po; format: ADME, organism-based; details: in vivo
[8] = Intrinsic clearance in mouse liver microsomes; format: ADME, Microsome; details: read-out: CLH
[9] = AUC (0 to infinity) in mouse at 5 mg/kg, po; format: ADME, organism-based; parameters: route oral, time infinity, dose 5 mg/kg; details: in vivo
[10] = target: T1, Tyrosine-protein kinase receptor UFO; assay: Displacement of K5 tracer from Axl (unknown origin) expressed in human HEK293 cells cotransfected with NanoLuc measured after 2 hrs by NanoBRET assay; format: cell-based
[11] = Efflux ratio of permeability in human Caco-2 cells; format: ADME, cell-based
[12] = Permeability across basolateral to apical side in human Caco-2 cells; format: ADME, cell-based; details: read-out: permeability
SK-OV-3 = assay: Antiproliferative activity against human SK-OV-3 cells as reduction in cell growth measured after 72 hrs by Celltiter-Glo luminescent assay; format: functional
[13] = Distribution coefficient, logD of compound at pH 7.4; format: physicochemical; details: octanol/water
[14] = target: Proto-oncogene tyrosine-protein kinase receptor Ret (Homo sapiens) (UniProt P07949); assay: Inhibition of RET (unknown origin)
Chain of Proto-oncogene tyrosine-protein kinase receptor Ret (Homo sapiens) (P07949 whole entry): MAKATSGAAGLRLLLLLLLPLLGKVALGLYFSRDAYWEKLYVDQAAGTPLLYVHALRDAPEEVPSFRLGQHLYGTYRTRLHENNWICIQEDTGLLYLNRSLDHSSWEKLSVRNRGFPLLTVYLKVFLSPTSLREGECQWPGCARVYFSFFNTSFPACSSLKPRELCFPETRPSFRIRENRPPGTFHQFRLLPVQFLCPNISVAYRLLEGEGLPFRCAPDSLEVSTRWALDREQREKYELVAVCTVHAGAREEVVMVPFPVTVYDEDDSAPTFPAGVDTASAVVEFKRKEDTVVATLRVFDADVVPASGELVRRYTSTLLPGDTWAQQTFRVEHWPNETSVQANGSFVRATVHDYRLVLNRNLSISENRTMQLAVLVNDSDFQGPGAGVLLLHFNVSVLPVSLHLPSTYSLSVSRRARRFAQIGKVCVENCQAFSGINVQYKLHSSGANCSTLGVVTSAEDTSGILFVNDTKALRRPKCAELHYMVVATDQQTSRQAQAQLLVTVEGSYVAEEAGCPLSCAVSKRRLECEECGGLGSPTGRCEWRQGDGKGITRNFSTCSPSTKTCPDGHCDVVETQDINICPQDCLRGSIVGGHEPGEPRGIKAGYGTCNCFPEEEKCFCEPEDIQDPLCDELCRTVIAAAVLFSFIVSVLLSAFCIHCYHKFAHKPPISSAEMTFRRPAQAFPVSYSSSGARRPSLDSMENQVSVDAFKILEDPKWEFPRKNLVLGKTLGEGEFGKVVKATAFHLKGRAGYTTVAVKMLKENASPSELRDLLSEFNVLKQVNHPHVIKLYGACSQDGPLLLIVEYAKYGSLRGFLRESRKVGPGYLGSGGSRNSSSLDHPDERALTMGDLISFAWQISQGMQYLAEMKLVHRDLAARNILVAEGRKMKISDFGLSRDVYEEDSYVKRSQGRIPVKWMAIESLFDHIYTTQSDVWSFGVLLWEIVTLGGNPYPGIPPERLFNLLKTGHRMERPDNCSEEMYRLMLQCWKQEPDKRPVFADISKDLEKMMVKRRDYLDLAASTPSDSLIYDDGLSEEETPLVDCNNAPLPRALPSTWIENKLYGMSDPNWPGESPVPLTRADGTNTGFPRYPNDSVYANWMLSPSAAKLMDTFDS

[15] = target: Tyrosine-protein kinase receptor UFO (Homo sapiens) (UniProt P30530); assay: Inhibition of Axl in human SK-OV-3 cells assessed as reduction in phosphorylated Axl level measured after 1 hr by Western blot analysis; format: cell-based; details: dose 1-10 µM
[16] = target: MAP kinase-interacting serine/threonine-protein kinase 2 (Homo sapiens) (UniProt Q9HBH9); assay: Inhibition of MKNK2 (unknown origin)
Chain of MAP kinase-interacting serine/threonine-protein kinase 2 (Homo sapiens) (Q9HBH9 whole entry, looked up): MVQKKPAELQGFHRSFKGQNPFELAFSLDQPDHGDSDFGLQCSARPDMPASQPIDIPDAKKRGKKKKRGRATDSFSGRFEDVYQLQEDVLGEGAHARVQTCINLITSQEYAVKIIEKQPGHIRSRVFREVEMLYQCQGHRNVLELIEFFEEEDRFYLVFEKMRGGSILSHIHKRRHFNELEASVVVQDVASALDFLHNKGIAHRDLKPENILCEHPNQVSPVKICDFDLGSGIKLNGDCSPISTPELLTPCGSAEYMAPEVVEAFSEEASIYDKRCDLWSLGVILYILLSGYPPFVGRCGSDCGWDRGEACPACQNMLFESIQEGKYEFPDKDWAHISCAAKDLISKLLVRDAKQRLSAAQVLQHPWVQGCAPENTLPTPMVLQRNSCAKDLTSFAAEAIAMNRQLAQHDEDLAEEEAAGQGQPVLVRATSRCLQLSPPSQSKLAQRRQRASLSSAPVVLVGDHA

[17] = target: Receptor-type tyrosine-protein kinase FLT3 (Homo sapiens) (UniProt P36888); assay: Inhibition of FLT3 (unknown origin)
Chain of Receptor-type tyrosine-protein kinase FLT3 (Homo sapiens) (P36888 whole entry): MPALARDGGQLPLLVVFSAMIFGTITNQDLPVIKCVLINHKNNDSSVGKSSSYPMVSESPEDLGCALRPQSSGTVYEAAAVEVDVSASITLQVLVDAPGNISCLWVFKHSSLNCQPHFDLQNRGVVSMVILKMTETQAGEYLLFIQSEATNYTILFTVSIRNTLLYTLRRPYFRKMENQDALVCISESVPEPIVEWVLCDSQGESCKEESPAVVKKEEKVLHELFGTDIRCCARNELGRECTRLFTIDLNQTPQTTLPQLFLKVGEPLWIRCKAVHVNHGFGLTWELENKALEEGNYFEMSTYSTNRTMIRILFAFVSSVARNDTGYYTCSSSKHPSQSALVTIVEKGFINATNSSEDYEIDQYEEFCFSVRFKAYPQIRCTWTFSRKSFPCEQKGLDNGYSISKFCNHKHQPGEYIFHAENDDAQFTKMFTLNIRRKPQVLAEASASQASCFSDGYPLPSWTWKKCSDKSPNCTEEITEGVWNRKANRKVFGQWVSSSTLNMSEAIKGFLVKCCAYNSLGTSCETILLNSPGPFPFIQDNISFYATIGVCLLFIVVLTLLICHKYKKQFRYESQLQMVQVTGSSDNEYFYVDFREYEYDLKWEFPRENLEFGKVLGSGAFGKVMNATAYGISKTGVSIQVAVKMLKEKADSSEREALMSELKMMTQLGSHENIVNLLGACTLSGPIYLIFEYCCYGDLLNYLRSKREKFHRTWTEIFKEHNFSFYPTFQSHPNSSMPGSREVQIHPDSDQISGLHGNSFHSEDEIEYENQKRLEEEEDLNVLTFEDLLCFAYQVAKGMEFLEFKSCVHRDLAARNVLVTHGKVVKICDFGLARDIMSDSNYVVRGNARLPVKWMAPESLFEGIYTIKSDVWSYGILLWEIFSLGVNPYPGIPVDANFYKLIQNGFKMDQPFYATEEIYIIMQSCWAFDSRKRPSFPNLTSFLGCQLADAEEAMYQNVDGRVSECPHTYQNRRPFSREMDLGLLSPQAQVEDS

[18] = target: Tyrosine-protein kinase receptor UFO (Homo sapiens) (UniProt P30530); assay: Inhibition of Axl in human SK-OV-3 cells assessed as reduction in phosphorylated ERK1/2 level at 1 to 10 uM measured after 1 hr by Western blot analysis; format: cell-based; details: dose 1-10 µM

IC50 [1]: > 770 µM
SMILES: Nc1ccc2c(Br)n[nH]c2c1

IC50 [1]: 207 µM
SMILES: CN1CCC(Nc2ccc3[nH]nc(-c4cnn(C)c4)c3c2)CC1

IC50 [1]: 1.54 µM
SMILES: Cn1cc(-c2n[nH]c3ccc(Br)cc23)cn1

IC50 [1]: 132 µM
SMILES: Cn1cc(-c2n[nH]c3ccc(NC4CCNC4)cc23)cn1 (centres undefined)

IC50 [1]: 8.91 µM
SMILES: Cn1cc(-c2n[nH]c3ccc(N)cc23)cn1

IC50 [1]: 57 µM
SMILES: Nc1ccc(Br)c2ccncc12

IC50 [1]: 184 µM
SMILES: FC(F)(F)c1cccc2[nH]ncc12

Papp A→B [2]: 4.05 ×10⁻⁶ cm/s
Cmax [3]: 53 ng/mL
half-life [4]: 2.16 h
microsomal CLint [5]: 83 µL/min/mg
solubility thermodynamic [6]: 5.55 µg/mL (≈ 12.8 µM)
Tmax [7]: 0.25 h
microsomal CLint [8]: 5.14 µL/min/mg
AUC(0-inf) [9]: 129 ng·h/mL
IC50 [10]: 0.883 µM
efflux ratio [11]: 1.3
IC50 [1]: 1 µM
Papp B→A [12]: 5.24 ×10⁻⁶ cm/s
GI50 (SK-OV-3): 0.0285 µM
logD [13]: > 5
SMILES: COc1ccc(-n2cc(-c3n[nH]c4cc(Cl)c(N[C@H]5CNCC56CC6)cc34)cn2)cc1

Papp A→B [2]: 21.1 ×10⁻⁶ cm/s
Cmax [3]: 258 ng/mL
half-life [4]: 2.6 h
microsomal CLint [5]: 15.4 µL/min/mg
solubility thermodynamic [6]: 4.58 µg/mL (≈ 10.7 µM)
Tmax [7]: 0.17 h
microsomal CLint [8]: 43.9 µL/min/mg
AUC(0-inf) [9]: 573 ng·h/mL
IC50 [10]: 26.3 µM
efflux ratio [11]: 0.82
IC50 [1]: 466 µM
Papp B→A [12]: 17.4 ×10⁻⁶ cm/s
logD [13]: 3.66
SMILES: FC(F)(F)n1cc(-c2n[nH]c3cc(Cl)c(N[C@@H]4CCN(C5COC5)C4)cc23)cn1

IC50 [1]: > 384 µM
SMILES: Cn1cc(-c2nn(C)c3cc(N)ccc23)cn1

IC50 [1]: 330 µM
SMILES: Brc1cnn2cccnc12

IC50 [1]: > 770 µM
SMILES: O=C(O)c1ccc2cn[nH]c2c1

IC50 [1]: 0.58 µM
SMILES: Cn1cc(-c2n[nH]c3ccc(Nc4ccccc4)cc23)cn1

IC50 [1]: > 770 µM
SMILES: O=C(O)c1ccc2c(Br)n[nH]c2c1

IC50 [1]: 227 µM
SMILES: COc1cc2[nH]ncc2cc1Br

IC50 [10]: 0.684 µM
IC50 [1]: 2.3 µM
SMILES: Fc1ccc(-n2cc(-c3n[nH]c4cc(Cl)c(N[C@@H]5CCNC5)cc34)cn2)cc1

IC50 [1]: 219 µM
SMILES: Cn1cc(-c2n[nH]c3cc(Nc4ccccc4)ccc23)cn1

IC50 [10]: 0.88 µM
IC50 [1]: 0.7 µM
GI50 (SK-OV-3): 0.0529 µM
SMILES: N#Cc1ccc(-n2cc(-c3n[nH]c4cc(Cl)c(N[C@@H]5CCNC5)cc34)cn2)cc1

IC50 [1]: 363 µM
SMILES: Nc1cccc(-c2cccnc2)c1

IC50 [10]: > 50 µM
IC50 [1]: 239 µM
SMILES: Cn1cc(-c2n[nH]c3ccc(N[C@H]4CCNC4)cc23)cn1

IC50 [1]: 331 µM
SMILES: CSc1cc(-c2ccc(F)cc2)n[nH]1

IC50 [1]: 28.8 µM
SMILES: Cn1cc(-c2n[nH]c3cc(N)ccc23)cn1

IC50 [1]: 113 µM
SMILES: Clc1ccnc2[nH]ccc12

IC50 [1]: 302 µM
SMILES: Clc1ncnc2ccsc12

IC50 [1]: 20.2 µM
SMILES: Cc1cnc2[nH]ccc2c1Cl

inhibition [14]: Active
Papp A→B [2]: 15.2 ×10⁻⁶ cm/s
Cmax [3]: 460 ng/mL
half-life [4]: 2.46 h
inhibition [15]: Dose-Dependent Effect
microsomal CLint [5]: 129 µL/min/mg
inhibition [16]: Active
solubility thermodynamic [6]: 1.84 µg/mL (≈ 3.96 µM)
Tmax [7]: 0.25 h
inhibition [17]: Active
microsomal CLint [8]: 44.8 µL/min/mg
inhibition [18]: Active
AUC(0-inf) [9]: 1620 ng·h/mL
IC50 [10]: 11.4 µM
efflux ratio [11]: 0.55
IC50 [1]: 41.5 µM
Papp B→A [12]: 8.41 ×10⁻⁶ cm/s
GI50 (SK-OV-3): 1.02 µM
logD [13]: 4.75
SMILES: COc1ccc(-n2cc(-c3n[nH]c4cc(Cl)c(N[C@@H]5CCN(C6COC6)C5)cc34)cn2)cc1

IC50 [1]: 1850 µM
SMILES: CN1CCC(CNc2ccc3[nH]nc(-c4cnn(C)c4)c3c2)CC1

IC50 [1]: 486 µM
SMILES: Nc1cccc2[nH]nc(Br)c12

IC50 [10]: 8.96 µM
IC50 [1]: 74 µM
SMILES: CN1CC[C@@H](Nc2cc3c(-c4cnn(C)c4)n[nH]c3cc2Cl)C1

IC50 [1]: 391 µM
SMILES: c1cnc2[nH]ccc2c1

IC50 [10]: 3.46 µM
IC50 [1]: 5 µM
SMILES: FCCn1cc(-c2n[nH]c3cc(Cl)c(N[C@@H]4CCNC4)cc23)cn1

IC50 [1]: 0.62 µM
SMILES: Cn1cc(-c2n[nH]c3ccc(-c4ccccc4)cc23)cn1

IC50 [10]: 20.7 µM
IC50 [1]: 37 µM
SMILES: Cn1cc(-c2n[nH]c3ccc(N[C@@H]4CCNC4)cc23)cn1

inhibition [15]: Dose-Dependent Effect
inhibition [18]: Active
IC50 [10]: 0.374 µM
IC50 [1]: 0.3 µM
GI50 (SK-OV-3): 0.718 µM
SMILES: COc1ccc(-n2cc(-c3n[nH]c4cc(Cl)c(N[C@@H]5CCNC5)cc34)cn2)cc1

IC50 [1]: 13 µM
SMILES: O=C1CC(c2ccccc2)=NN1

Papp A→B [2]: 0.39 ×10⁻⁶ cm/s
inhibition [15]: Dose-Dependent Effect
microsomal CLint [5]: < 12 µL/min/mg
solubility thermodynamic [6]: 297 µg/mL (≈ 938 µM)
microsomal CLint [8]: 9.38 µL/min/mg
inhibition [18]: Active
IC50 [10]: 3.13 µM
efflux ratio [11]: 22.6
IC50 [1]: 19 µM
Papp B→A [12]: 8.71 ×10⁻⁶ cm/s
GI50 (SK-OV-3): 8.62 µM
logD [13]: 0.32
SMILES: Cn1cc(-c2n[nH]c3cc(Cl)c(N[C@@H]4CCNC4)cc23)cn1

IC50 [10]: 3.54 µM
IC50 [1]: 3.2 µM
GI50 (SK-OV-3): 2.78 µM
SMILES: N#Cc1ccccc1-n1cc(-c2n[nH]c3cc(Cl)c(N[C@@H]4CCNC4)cc23)cn1

IC50 [1]: 178 µM
SMILES: Brc1cccc2[nH]ncc12

IC50 [1]: 28.4 µM
SMILES: Nc1ccc2c(-c3cccnc3)n[nH]c2c1

IC50 [1]: 0.85 µM
SMILES: Cn1cc(-c2n[nH]c3cc(Cl)c(Br)cc23)cn1

IC50 [1]: 46.6 µM
SMILES: CC(C)Nc1ccc2c(-c3cnn(C)c3)n[nH]c2c1

IC50 [1]: 70 µM
SMILES: Cc1ccc(C)n1-c1ccsc1C(=O)O

IC50 [1]: 305 µM
SMILES: c1cncc(-c2csc(-c3cccnc3)n2)c1

IC50 [1]: > 770 µM
SMILES: Nc1ccc2[nH]nc(Br)c2c1

IC50 [1]: 38 µM
SMILES: COc1ccc2[nH]c(C)cc2c1

IC50 [1]: 12.3 µM
SMILES: Cn1cc(-c2n[nH]c3cc(-c4ccccc4)ccc23)cn1

IC50 [1]: 432 µM
SMILES: CNC1CCN(c2ccc3[nH]nc(-c4cnn(C)c4)c3c2)C1 (centres undefined)

IC50 [1]: 0.95 µM
SMILES: Cn1cc(-c2n[nH]c3cc(Br)ccc23)cn1

IC50 [10]: 0.668 µM
IC50 [1]: 1.7 µM
SMILES: Clc1cc2[nH]nc(-c3cnn(-c4ccccc4)c3)c2cc1N[C@@H]1CCNC1

IC50 [1]: 22.8 µM
SMILES: Brc1c[nH]c2ncccc12

Papp A→B [2]: 13.7 ×10⁻⁶ cm/s
Cmax [3]: 126 ng/mL
half-life [4]: 2 h
microsomal CLint [5]: 6.9 µL/min/mg
solubility thermodynamic [6]: 245 µg/mL (≈ 657 µM)
Tmax [7]: 0.17 h
microsomal CLint [8]: 15.2 µL/min/mg
AUC(0-inf) [9]: 396 ng·h/mL
IC50 [10]: 24.7 µM
efflux ratio [11]: 2.31
IC50 [1]: 320 µM
Papp B→A [12]: 31.6 ×10⁻⁶ cm/s
logD [13]: 2.31
SMILES: Cn1cc(-c2n[nH]c3cc(Cl)c(N[C@@H]4CCN(C5COC5)C4)cc23)cn1

IC50 [10]: 2.02 µM
IC50 [1]: 2.3 µM
GI50 (SK-OV-3): 0.496 µM
SMILES: N#Cc1cccc(-n2cc(-c3n[nH]c4cc(Cl)c(N[C@@H]5CCNC5)cc34)cn2)c1
